We go through three compounds from patent publication US5990101A, “Carbapenem derivatives” (Meiji Seika Kabushiki Kaisha, priority 1995, dated 1999).

The nature of one series: Acute toxicity. Format: in vivo. Conditions: three ICR male mice, 1500 mg/kg i.v.
In a further series the test system is E. coli 255. Kind of series: Antibacterial activity (MIC, two-fold method), E. coli 255. Format: cell-based. Further details: unit not given here.
The next series concerns P. vulgaris GN76. Briefly: Antibacterial activity (MIC, two-fold method), P. vulgaris GN76. Format: cell-based. Further details: unit not given here.
The subject of another series is E. faecalis W-73. Briefly: Antibacterial activity (MIC, two-fold method), E. faecalis W-73. Format: cell-based. Further details: unit not given here.
The test system of the next series is Ps. aeruginosa M-0148. Kind of series: Antibacterial activity (MIC, two-fold method), Ps. aeruginosa M-0148. Type of series: cell-based. Details: unit not given here.
The next series deals with C. freudii GN346. Briefly: Antibacterial activity (MIC, two-fold method), C. freudii GN346. Format: cell-based. Details: unit not given here.
A further series has as its system S. aureus M126. Kind of series: Antibacterial activity (MIC, two-fold method), S. aureus M126 (methicillin-resistant). Type of series: cell-based. Details: unit not given here. The source says: *: Methicillinresistant Staphylococcus aureus-
The subject of a further series is E. coli NIHJ JC-2. Kind of series: Antibacterial activity (MIC, two-fold method), E. coli NIHJ JC-2. Type of series: cell-based. Further details: unit not given here.
The next series has as its system E. cloacae GN747. Briefly: Antibacterial activity (MIC, two-fold method), E. cloacae GN747. Type of series: cell-based. Details: unit not given here.
The next series relates to S. marcescens GN10857. Kind of series: Antibacterial activity (MIC, two-fold method), S. marcescens GN10857. Format: cell-based. Further details: unit not given here.
A further series concerns K. pneumoniae PC1602. Kind of series: Antibacterial activity (MIC, two-fold method), K. pneumoniae PC1602. Type of series: cell-based. Details: unit not given here.
The test system of a further series is Ps. aeruginosa E-2. Kind of series: Antibacterial activity (MIC, two-fold method), Ps. aeruginosa E-2. Type of series: cell-based. Details: unit not given here.
The subject of another series is S. aureus 209P JC-1. Briefly: Antibacterial activity (MIC, two-fold method), S. aureus 209P JC-1. Format: cell-based. Further details: unit not given here.
Series [1] has as its system renal dehydropeptidase-1 (DHP-1). The note with it: background art; cited from earlier work.

A value given as a limit tells only on which side of the number the result lay.

With `C[C@@H](O)[C@H]1C(=O)N2C(C(=O)[O-])=C(C[n+]3cc4scc(CNS(N)(=O)=O)n4c3)[C@H](C)[C@H]12` [Example 14, (1S,5R,6S)-6-[(1R)-1-hydroxyethyl]-2-[3-(aminosulfonyl)aminomethylimidazo[5,1-b]thiazolium-6-yl]methyl-1-methyl-1-carbapen-2-em-3-carboxylate], the “survival (acute toxicity)” value in the series “Acute toxicity” is “All the animal survived”.
Take `C[C@@H](O)[C@H]1C(=O)N2C(C(=O)[O-])=C(Cn3cc4sc(C(N)=O)c[n+]4c3)[C@H](C)[C@H]12` [Example 68, (1S,5R,6S)-6-[(1R)-1-hydroxyethyl]-2-(2-carbamoylimidazo[5,1-b]thiazolium-6-yl)methyl-1-methyl-1-carbapen-2-em-3-carboxylate]: the MIC in the series with E. coli 255 is on record as 0.20; against P. vulgaris GN76, 0.78; in the series on E. faecalis W-73 it was 6.25; against Ps. aeruginosa M-0148 it was 3.13; with C. freudii GN346, 0.10; in the series on S. aureus M126, 6.25. Further, the MIC in the series with E. coli NIHJ JC-2 is given as 0.20; against E. cloacae GN747 it was 0.20; against S. marcescens GN10857, 0.39; in the series on K. pneumoniae PC1602 it was 0.20; in the series with Ps. aeruginosa E-2, 3.13; in the series with S. aureus 209P JC-1, under 0.025.
Take `C[C@@H](O)[C@H]1C(=O)N2C(C(=O)O)=C(SCCN=CN)C[C@H]12` [Imipenem]: in series [1], the “stability against renal dehydropeptidase-1 (DHP-1)” value is on record as “instability”.
